ChEMBL document CHEMBL4715908, “Design, synthesis, characterization, and anticancer activity of a novel series of O-substituted chalcone derivatives” (Bioorg Med Chem Lett, 2021)

Assays:
CCRF-CEM = assay: Cytotoxicity against human CCRF-CEM cells assessed as reduction in cell viability after 72 hrs by RRA assay; format: functional, cell-based
[1] = Cytotoxicity against mouse AML12 cells assessed as reduction in cell viability after 72 hrs by RRA assay; format: cell-based; conditions: AML12, 72 h
[2] = Resistant index, ratio of IC50 for cytotoxicity against human U87MG.deltaEGFR cells to IC50 for cytotoxicity against human U87 cells; format: functional
ADR5000 cell line = assay: Cytotoxicity against human CEM/ADR5000 cells assessed as reduction in cell viability after 72 hrs by RRA assay; format: functional, cell-based; conditions: ADR5000, 72 h
HCT-116 [3] = assay: Cytotoxicity against human HCT-116 p53+/+ cells assessed as reduction in cell viability after 72 hrs by RRA assay; format: functional, cell-based; conditions: HCT-116, 72 h
[4] = Resistant index, ratio of IC50 for cytotoxicity against human MDA-MB-231/BCRP cells to IC50 for cytotoxicity against human MDA-MB-231 pcDNA cells; format: functional
[5] = Cytotoxicity against human MDA-MB-231/BCRP cells assessed as reduction in cell viability after 72 hrs by RRA assay; format: functional, cell-based
[6] = Cytotoxicity against human U87.deltaEGFR cells assessed as reduction in cell viability after 72 hrs by RRA assay; format: functional, cell-based; conditions: U87MG.deltaEGFR
[7] = Selectivity index, ratio of IC50 for cytotoxicity against mouse AML12 cells to IC50 for cytotoxicity against human HepG2 cells
[8] = Resistant index, ratio of IC50 for cytotoxicity against human CEM/ADR5000 cells to IC50 for cytotoxicity against human CCRF-CEM cells; format: functional
HepG2 [9] = assay: Cytotoxicity against human HepG2 cells assessed as reduction in cell viability after 72 hrs by RRA assay; format: functional, cell-based; conditions: HepG2, 72 h
MDA-MB-231 = assay: Cytotoxicity against human MDA-MB-231 pcDNA cells assessed as reduction in cell viability after 72 hrs by RRA assay; format: functional, cell-based; conditions: MDA-MB-231, 72 h
U-87 MG = assay: Cytotoxicity against human U87 cells assessed as reduction in cell viability after 72 hrs by RRA assay; format: functional, cell-based, U-87MG ATCC
HCT-116 [10] = assay: Cytotoxicity against human HCT-116 p53-/- cells assessed as reduction in cell viability after 72 hrs by RRA assay; format: functional, cell-based; conditions: HCT-116, 72 h
[11] = Resistant index, ratio of IC50 for cytotoxicity against human HCT-116 p53-/- cells to IC50 for cytotoxicity against human HCT-116 p53+/+ cells
THP-1 = assay: Cytotoxicity against human THP-1 cells assessed as reduction in cell viability after 72 hrs by SRB assay; format: functional, cell-based; conditions: THP-1, 72 h
HepG2 [12] = assay: Cytotoxicity against human HepG2 cells assessed as reduction in cell viability after 72 hrs by SRB assay; format: functional, cell-based; conditions: HepG2, 72 h
DU-145 = assay: Cytotoxicity against human DU-145 cells assessed as reduction in cell viability after 72 hrs by SRB assay; format: functional, cell-based; conditions: DU-145, 72 h
HL-60 = assay: Cytotoxicity against human HL-60 cells assessed as reduction in cell viability after 72 hrs by SRB assay; format: functional, cell-based; conditions: HL-60, 72 h
MCF7 = assay: Cytotoxicity against human MCF7 cells assessed as reduction in cell viability after 72 hrs by SRB assay; format: functional, cell-based; conditions: MCF7, 72 h
[13] = Resistant index, ratio of IC50 for cytotoxicity against human HCT-116 p53+/+ cells to IC50 for cytotoxicity against human HCT-116 p53-/- cells; format: functional

For `C#CCOc1ccc(C(CC(=O)c2cccc(Br)c2)CC(=O)c2cccc(Br)c2)cc1OC`, the IC50 (CCRF-CEM) was over 50 µM.
For `C#CCOc1ccc(/C=C/C(=O)c2cccc(Br)c2)cc1OC`, the IC50 [1] was 12.5 µM, the IC50 (CCRF-CEM) was 15.2 µM and the “Ratio IC50” value [2] was 1.61. The IC50 (ADR5000 cell line) was 2.28 µM, the IC50 (HCT-116 [3]) was 2.9 µM and the “Ratio IC50” value [4] was 0.88. The IC50 [5] was 3.09 µM, the IC50 [6] was 4.16 µM and the “Ratio IC50” value [7] was 1.24. For the same molecule, the “Ratio IC50” value [8] was 0.15, the IC50 (HepG2 [9]) was 10.1 µM and the IC50 (MDA-MB-231) was 3.5 µM. The IC50 (U-87 MG) was 2.59 µM, the IC50 (HCT-116 [10]) was 1.9 µM and the “Ratio IC50” value [11] was 0.66.
`C#CCOc1ccc(/C=C/C(=O)c2ccc(C)cc2)cc1OC` showed an IC50 (CCRF-CEM) of over 50 µM.
With `C#CCOc1ccc(/C=C/C(=O)c2cccc(OC)c2)cc1OC` the IC50 [1] was 11.4 µM, the IC50 (CCRF-CEM) was 5.59 µM and the “Ratio IC50” value [2] was 0.91. The IC50 (ADR5000 cell line) was 1.1 µM, the IC50 (HCT-116 [3]) was 1.92 µM and the “Ratio IC50” value [4] was 0.09. The IC50 [5] was 1.23 µM, the IC50 [6] was 1.33 µM and the “Ratio IC50” value [7] was 2.05. The “Ratio IC50” value [8] was 0.2, the IC50 (HepG2 [9]) was 5.54 µM and the IC50 (MDA-MB-231) was 13.8 µM. The IC50 (U-87 MG) was 1.46 µM, the IC50 (HCT-116 [10]) was 1.01 µM and the “Ratio IC50” value [11] was 0.53.
With `C#CCOc1ccc(/C=C/C(=O)c2cccc(C)c2)cc1OC` the IC50 [1] was 11.3 µM, the IC50 (CCRF-CEM) was 8.82 µM and the “Ratio IC50” value [2] was 1.09. For the same molecule, the IC50 (ADR5000 cell line) was 1.38 µM, the IC50 (HCT-116 [3]) was 1.38 µM and the “Ratio IC50” value [4] was 0.87. For the same molecule, the IC50 [5] was 1.77 µM, the IC50 [6] was 1.97 µM and the “Ratio IC50” value [7] was 2.24. For the same molecule, the “Ratio IC50” value [8] was 0.16, the IC50 (HepG2 [9]) was 5.03 µM and the IC50 (MDA-MB-231) was 2.03 µM. The IC50 (U-87 MG) was 1.8 µM, the IC50 (HCT-116 [10]) was 1.06 µM and the “Ratio IC50” value [11] was 0.77.
`C=CCOc1ccc(/C=C/C(=O)c2ccccc2C)cc1OC` showed an IC50 (THP-1) of 4.76 µM, an IC50 (HepG2 [12]) of 10.1 µM and an IC50 (DU-145) of 5.21 µM. It also gave an IC50 (HL-60) of 7.9 µM and an IC50 (MCF7) of 10.3 µM.
For `C#CCOc1ccc(/C=C/C(=O)c2cccn2C)cc1OC`, the IC50 (CCRF-CEM) was over 50 µM.
In the case of `C=CCOc1ccc(C=O)cc1OC`, the IC50 [1] is reported as 15.3 µM, the IC50 (CCRF-CEM) is reported as 14 µM and the “Ratio IC50” value [2] is reported as 0.93. The IC50 (ADR5000 cell line) was 3.48 µM, the IC50 (HCT-116 [3]) was 5.77 µM and the “Ratio IC50” value [4] was 0.5. The IC50 [5] was 7.53 µM, the IC50 [6] was 6.97 µM and the “Ratio IC50” value [7] was 1.46. The “Ratio IC50” value [8] was 0.25, the IC50 (HepG2 [9]) was 10.5 µM and the IC50 (MDA-MB-231) was 15 µM. The IC50 (U-87 MG) was 7.5 µM, the IC50 (HCT-116 [10]) was 8.02 µM and the “Ratio IC50” value [11] was 1.39.
For `C#CCOc1ccc(/C=C/C(=O)c2ccccc2C)cc1OC`, the IC50 [1] was 8.2 µM, the IC50 (CCRF-CEM) was 6.95 µM and the “Ratio IC50” value [2] was 0.58. For the same molecule, the IC50 (ADR5000 cell line) was 0.92 µM, the IC50 (HCT-116 [3]) was 1.66 µM and the “Ratio IC50” value [4] was 0.07. The IC50 [5] was 0.99 µM, the IC50 [6] was 1.21 µM and the “Ratio IC50” value [7] was 3.11. For the same molecule, the “Ratio IC50” value [8] was 0.13, the IC50 (HepG2 [9]) was 2.64 µM and the IC50 (MDA-MB-231) was 14.8 µM. For the same molecule, the IC50 (U-87 MG) was 2.1 µM, the IC50 (HCT-116 [10]) was 1.06 µM and the “Ratio IC50” value [11] was 0.64.
With `C#CCOc1ccc(C(=O)/C=C/c2ccc(OCC=C)c(OC)c2)cc1CC=C` the IC50 (CCRF-CEM) was over 50 µM.
With `C#CCOc1ccc(C(CC(=O)c2cccc(C)c2)CC(=O)c2cccc(C)c2)cc1OC` the IC50 (CCRF-CEM) was over 50 µM.
In the case of `C=CCc1cc(C(C)=O)ccc1OCC=C(C)C`, the IC50 [1] is reported as 18.1 µM, the IC50 (CCRF-CEM) is reported as 16.2 µM and the “Ratio IC50” value [2] is reported as 0.94. The IC50 (ADR5000 cell line) was 5.25 µM, the IC50 (HCT-116 [3]) was 10.6 µM and the “Ratio IC50” value [4] was 0.67. The IC50 [5] was 11.9 µM, the IC50 [6] was 12.2 µM and the “Ratio IC50” value [7] was 1.23. The “Ratio IC50” value [8] was 0.32, the IC50 (HepG2 [9]) was 14.7 µM and the IC50 (MDA-MB-231) was 17.9 µM. For the same molecule, the IC50 (U-87 MG) was 12.9 µM, the IC50 (HCT-116 [10]) was 14 µM and the “Ratio IC50” value [11] was 1.31.
`C=CCOc1ccc(/C=C/C(=O)c2ccc(OCC=C(C)C)c(CC=C)c2)cc1OC` showed an IC50 (CCRF-CEM) of over 50 µM.
Molecule `C#CCOc1ccc(/C=C/C(=O)c2ccc3c(c2)OCO3)cc1OC` has an IC50 (CCRF-CEM) of over 50 µM.
Molecule `C=CCOc1ccc(/C=C\C(=O)c2ccc(OCC=C(C)C)c(CC=C)c2)cc1OC` has an IC50 (CCRF-CEM) of over 50 µM.
In the case of `C#CCOc1ccc(/C=C/C(=O)c2ccn(C)c2)cc1OC`, the IC50 (CCRF-CEM) is reported as over 50 µM.
Molecule `C#CCOc1ccc(C=O)cc1OC` has an IC50 (CCRF-CEM) of over 50 µM.
In the case of `C#CCOc1ccc(/C=C/C(=O)c2ccc(C(C)C)cc2)cc1OC`, the IC50 [1] is reported as 9.91 µM, the IC50 (CCRF-CEM) is reported as 11.8 µM and the “Ratio IC50” value [2] is reported as 0.75. The IC50 (ADR5000 cell line) was 2.72 µM, the IC50 (HCT-116 [3]) was 3.7 µM and the “Ratio IC50” value [4] was 0.72. For the same molecule, the IC50 [5] was 2.93 µM, the IC50 [6] was 2.12 µM and the “Ratio IC50” value [7] was 1.57. For the same molecule, the “Ratio IC50” value [8] was 0.23, the IC50 (HepG2 [9]) was 6.31 µM and the “Ratio IC50” value [13] was 0.85. The IC50 (MDA-MB-231) was 4.07 µM, the IC50 (U-87 MG) was 2.84 µM and the IC50 (HCT-116 [10]) was 3.13 µM.
For `C#CCOc1ccc(/C=C/C(=O)c2ccc(-n3ccnc3)cc2)cc1OC`, the IC50 [1] was 12.7 µM, the IC50 (CCRF-CEM) was 15 µM and the “Ratio IC50” value [2] was 0.77. The IC50 (ADR5000 cell line) was 1 µM, the IC50 (HCT-116 [3]) was 0.78 µM and the “Ratio IC50” value [4] was 0.86. For the same molecule, the IC50 [5] was 1.74 µM, the IC50 [6] was 1.08 µM and the “Ratio IC50” value [7] was 2.36. For the same molecule, the “Ratio IC50” value [8] was 0.07, the IC50 (HepG2 [9]) was 5.39 µM and the IC50 (MDA-MB-231) was 2.03 µM. The IC50 (U-87 MG) was 1.41 µM, the IC50 (HCT-116 [10]) was 0.67 µM and the “Ratio IC50” value [11] was 0.86.
`C#CCOc1ccc(/C=C/C(=O)c2ccc(CC=C(C)C)cc2)cc1OC` showed an IC50 (CCRF-CEM) of over 50 µM.
For `C#CCOc1ccc(/C=C/C(=O)c2ccc(OC)c(OC)c2)cc1OC`, the IC50 [1] was 6.75 µM, the IC50 (CCRF-CEM) was 8.65 µM and the “Ratio IC50” value [2] was 0.55. For the same molecule, the IC50 (ADR5000 cell line) was 1.44 µM, the IC50 (HCT-116 [3]) was 2.01 µM and the “Ratio IC50” value [4] was 0.14. For the same molecule, the IC50 [5] was 1.89 µM, the IC50 [6] was 1.56 µM and the “Ratio IC50” value [7] was 1.13. For the same molecule, the “Ratio IC50” value [8] was 0.17, the IC50 (HepG2 [9]) was 5.98 µM and the IC50 (MDA-MB-231) was 13.6 µM. The IC50 (U-87 MG) was 2.86 µM, the IC50 (HCT-116 [10]) was 0.32 µM and the “Ratio IC50” value [11] was 0.16.
Molecule `C#CCOc1ccc(C(C)=O)cc1CC=C` has an IC50 (CCRF-CEM) of 38.2 µM.
`COc1cccc2c1C(=O)c1c(O)c3c(c(O)c1C2=O)C[C@@](O)(C(=O)CO)C[C@@H]3O[C@H]1C[C@H](N)[C@H](O)[C@H](C)O1` [DOXORUBICIN] gave an IC50 [1] of 52.9 µM, an IC50 (CCRF-CEM) of 0.02 µM and an IC50 [5] of 0.79 µM. For the same molecule, the IC50 [6] was 0.98 µM, the IC50 (HepG2 [9]) was 4.56 µM and the IC50 (MDA-MB-231) was 0.13 µM. It also gave an IC50 (U-87 MG) of 0.26 µM and an IC50 (HCT-116 [10]) of 1.78 µM.
